# Structures can show the parent of a compound that is named as a salt. Where two headings read alike, the source gives them in different places.
# Tested on: NQO1 specific enzyme activity in BEAS-2B cells
# Test: BEAS-2B NQO1 MTT assay
# Format: cell-based
# Conditions: BEAS-2B cells, 48 hours with compound, MTT readout, read-out: EC50 of NQO1 specific activity induction
# Outline: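 BEAS-2B cells treated with compound 48 h at 37° C, 5% CO2, then lysed; NQO1 activity in lysate measured kinetically by MTT cocktail at Absorbance 570 nm over 30 min. EC50 for induction from Delta OD/min versus log concentration, 3-parameter fit; Cell Titer Glo run on lysate aliquot.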
Compound,"EC50 (Homo sapiens, BEAS-2B, 48 h) [nM]",EC50 (trifluoroacetic acid salt) [nM]
"Cc1ccc(C(c2ccc3c(nnn3C)c2C)C(C)(C)C(=O)O)cc1Cn1ccnc1CC1CCCOCC1 (stereo not shown) [Example 245, 3-(1,4-Dimethyl-1H-benzo[d][1,2,3]triazol-5-yl)-2,2-dimethyl-3-(4-methyl-3-((2-(oxepan-4-ylmethyl)-1H-imidazol-1-yl)methyl)phenyl)propanoic Acid]",10 to 100,
"CC[C@@H]1CN(Cc2cc(C(CC(=O)O)c3ccc4c(nnn4C)c3C)ccc2C)Cc2cc(C)ccc2O1 (stereo partly drawn) [Example 81, Ammonium 3-(1,4-dimethyl-1H-benzo[d][1,2,3]triazol-5-yl)-3-(3-(((R)-2-ethyl-7-methyl-2,3-dihydrobenzo[f][1,4]oxazepin-4(5H)-yl)methyl)-4-methylphenyl)propanate]",10 to 100,
"Cc1ccc(C(c2ccc3c(nnn3C)c2C)C(C)(C)C(=O)O)cc1Cn1ccnc1CN1C2CCC1CC2 (stereo not shown) [Example 155, 3-(3-((2-(7-Azabicyclo[2.2.1]heptan-7-ylmethyl)-1H-imidazol-1-yl)methyl)-4-methylphenyl)-3-(1,4-dimethyl-1H-benzo[d][1,2,3]triazol-5-yl)-2,2-dimethylpropanoic Acid, Trifluoroacetic Acid Salt]",10 to 100,
"Cc1ccc(C(c2ccc3c(nnn3C)c2C)C(C)(C)C(=O)O)cc1Cn1ccnc1CN1CCCCCC1 (stereo not shown) [Example 141, 3-(3-((2-(Azepan-1-ylmethyl)-1H-imidazol-1-yl)methyl)-4-methylphenyl)-3-(1,4-dimethyl-1H-benzo[d][1,2,3]triazol-5-yl)-2,2-dimethylpropanoic acid, trifluoroacetic acid salt]",,1000 to 10000
"CC[C@@H]1CN(Cc2cc([C@H](CC(=O)O)c3ccc4c(nnn4C)c3C)ccc2C)Cc2cccc(F)c2O1 [Example 58, (S)-3-(1,4-Dimethyl-1H-benzo[d][1,2,3]triazol-5-yl)-3-(3-(((R)-2-ethyl-9-fluoro-2,3-dihydrobenzo[f][1,4]oxazepin-4(5H)-yl)methyl)-4-methylphenyl)propanoic acid, Sodium salt]",10 to 100,
"Cc1ccc([C@@H](c2ccc3c(nnn3C)c2C)C(C)(C)C(=O)O)cc1CN1Cc2ncccc2OC(C)(C)C1 [Example 30, formic acid salt]",1 to 10,
"CCC1CN(Cc2cc([C@@H](c3ccc4c(nnn4C)c3C)C(C)C(=O)O)ccc2C)Cc2ccccc2O1 (stereo partly drawn) [Example 100, (3S)-3-(1,4-dimethyl-1H-benzo[d][1,2,3]triazol-5-yl)-3-(3-((2-ethyl-2,3-dihydrobenzo[f][1,4]oxazepin-4(5H)-yl)methyl)-4-methylphenyl)-2-methylpropanoic Acid]",10 to 100,
"Cc1ccc([C@@H](c2ccc3c(nnn3C)c2C)C(C)(C)C(=O)O)cc1Cn1ccnc1CN1CCCCC1 [Example 150, (S)-3-(1,4-Dimethyl-1H-benzo[d][1,2,3]triazol-5-yl)-2,2-dimethyl-3-(4-methyl-3-((2-(piperidin-1-ylmethyl)-1H-imidazol-1-yl)methyl)phenyl) propanoic acid]",< 1,
"CCn1nnc2c(F)c([C@H](c3ccc(C)c(CN4Cc5ccccc5OC(C)(C)C4)c3)[C@@H](C)C(=O)O)ccc21 [Example 193, (2R,3S)-3-(3-((2,2-Dimethyl-2,3-dihydro-benzo[f][1,4]oxazepin-4(5H)-yl)methyl)-4-methylphenyl)-3-(1-ethyl-4-fluoro-1H-benzo[d][1,2,3]triazol-5-yl)-2-methylpropanoic acid, Sodium salt]",1 to 10,
"CC[C@@H]1CN(Cc2cc(C(CC(=O)O)c3ccc4c(nnn4C)c3C)ccc2C)Cc2c(F)cccc2O1 (stereo partly drawn) [Example 83, 3-(1,4-Dimethyl-1H-benzo[d][1,2,3]triazol-5-yl)-3-(3-(((R)-2-ethyl-6-fluoro-2,3-dihydrobenzo[f][1,4]oxazepin-4(5H)-yl)methyl)-4-methylphenyl)propanoic acid]",100 to 1000,
"CC[C@@H]1CN(Cc2cc(C(CCc3cn(CC)nn3)C(C)(C)C(=O)O)ccc2C)Cc2ncccc2O1 (stereo partly drawn) [Example 216, 5-(1-Ethyl-1H-1,2,3-triazol-4-yl)-3-(3-(((R)-2-ethyl-2,3-dihydropyrido[2,3-f][1,4]oxazepin-4(5H)-yl)methyl)-4-methylphenyl)-2,2-dimethylpentanoic Acid]",1 to 10,
"CCC1CCN(Cc2nccn2Cc2cc([C@@H](c3ccc4c(nnn4CC)c3C)C(C)(C)C(=O)O)ccc2C)CC1 [Example 239, (S)-3-(1-Ethyl-4-methyl-1H-benzo[d][1,2,3]triazol-5-yl)-3-(3-((2-((4-ethylpiperidin-1-yl)methyl)-1H-imidazol-1-yl)methyl)-4-methylphenyl)-2,2-dimethylpropanoic Acid]",< 1,
"CCC1CCN(Cc2nccn2Cc2cc([C@H](c3ccc4c(nnn4C)c3C)C(C)(C)C(=O)O)ccc2Cl)CC1 [Example 238, (R)-3-(4-Chloro-3-((2-((4-ethylpiperidin-1-yl)methyl)-1H-imidazol-1-yl)methyl)phenyl)-3-(1,4-dimethyl-1H-benzo[d][1,2,3]triazol-5-yl)-2,2-dimethylpropanoic Acid]",1 to 10,
"CC[C@@H]1CN(Cc2cc(C(CC(=O)O)c3ccc4c(c3)nnn4C)ccc2C)Cc2ccccc2O1 (stereo partly drawn) [Example 91, 3-(3-(((R)-2-Ethyl-2,3-dihydrobenzo[f][1,4]oxazepin-4(5H)-yl)methyl)-4-methylphenyl)-3-(1-methyl-1H-benzo[d][1,2,3]triazol-5-yl)propanoic acid]",100 to 1000,
"CC[C@@H]1CN(Cc2cc([C@H](c3ccc4c(nnn4CC)c3C)C(C)(C)C(=O)O)ccc2C)Cc2cnccc2O1 [Example 189, (R)-3-(3-(((R)-2-ethyl-2,3-dihydropyrido[3,4-f][1,4]oxazepin-4(5H)-yl)methyl)-4-methylphenyl)-3-(1-ethyl-4-methyl-1H-benzo[d][1,2,3]triazol-5-yl)-2,2-dimethylpropanoic Acid]",1 to 10,
"Cc1ccc(C(CC(=O)O)c2ccc3c(nnn3C)c2C)cc1Cn1ccnc1CN1CCCCCC1 (stereo not shown) [Example 147, 3-(3-((2-(Azepan-1-ylmethyl)-1H-imidazol-1-yl)methyl)-4-methylphenyl)-3-(1,4-dimethyl-1H-benzo[d][1,2,3]triazol-5-yl)propanoic acid, formic acid salt]",1000 to 10000,
"Cc1ccc(C(c2ccc3c(nnn3C)c2C)C(C)(C)C(=O)O)cc1Cn1ccnc1CN1CCCOCC1 (stereo not shown) [Example 138, 3-(3-((2-((1,4-Oxazepan-4-yl)methyl)-1H-imidazol-1-yl)methyl)-4-methylphenyl)-3-(1,4-dimethyl-1H-benzo[d][1,2,3]triazol-5-yl)-2,2-dimethylpropanoic Acid]",1000 to 10000,
"Cc1ccc(C(CC(=O)O)c2ccc3c(nnn3C)c2C)cc1CN1Cc2ccccc2O[C@H](C)C1 (stereo partly drawn) [Example 94, 3-(1,4-Dimethyl-1H-benzo[d][1,2,3]triazol-5-yl)-3-(4-methyl-3-(((R)-2-methyl-2,3-dihydrobenzo[f][1,4]oxazepin-4(5H)-yl)methyl)phenyl)propanoic Acid, Formic Acid Salt]",1 to 10,
"CC[C@@H]1CN(Cc2cc(C(CC(=O)O)c3cnc4c(nnn4C)c3C)ccc2C)Cc2ccccc2O1 (stereo partly drawn) [Example 47, 3-(3,7-Dimethyl-3H-[1,2,3]triazolo[4,5-b]pyridin-6-yl)-3-(3-(((R)-2-ethyl-2,3-dihydrobenzo[f][1,4]oxazepin-4(5H)-yl)methyl)-4-methylphenyl)propanoic Acid, Trifluoroacetic Acid Salt]",100 to 1000,
